{"source": "patent US20220112149A1", "about": "“DRUG DESIGN METHOD ASSOCIATED WITH NATURAL PRODUCTS, PENTACYCLIC TRITERPENOID COMPOUND, PREPARATION METHOD AND APPLICATIONS THEREOF” (Huazhong Agricultural University, priority 2020, published 2022)", "key": {"[1]": {"test_system": "ICAM-1 expression in HMEC-1 cells", "assay": "LPS-induced ICAM-1 expression in HMEC-1 cells, flow cytometry", "assay_type": "cell-based, human", "procedure": "(3) Screening candidate molecules with the strongest ICAM-1 inhibitory activity by simulating the physiological model of inflammation that human microvascular endothelial cells (HMEC-1) expressing cell adhesion molecules (ICAM-1) mediate lymphocytes to penetrate blood vessels to infiltrate the damaged tissues. The specific steps are as follows:\n(§1) 1) Culture of HMEC-1 cells: HMEC-1 cells are cultured in MCDB131 medium (U.S. Sigma) that contain 10% fetal bovine serum (FBS, Zhejiang Tianhang Biotechnology Co., Ltd.), double antibody (100 U/mL penicillin and 100 μg/mL streptomycin), 1 μg/mL hydrocortisone (Sangon Biotech (Shanghai) Co., Ltd.) and 10 ng/mL human recombinant growth factor (hEGF, Sangon Biotech (Shanghai) Co., Ltd.) at 37° C., 5% CO2, and 100% RH.\n2) HMEC-1 cells are inoculated into a 24-well plate, and cultured in a cell incubator at 37° C., 5% CO2, and 100% RH. When the cells grow to 80% abundance, different concentrations of drugs are added for 3 h (1 μM Celastrol as a positive control drug). At the end of treatment, 1 μg/mL LPS is added to activate the NF-κB signaling pathway for 12 hours. After activation, the supernatant medium is discarded, and washed three times with PBS, and 100 μL of 0.25% pancreatin (containing 0.5 mM EDTA) is added to digest in a 37° C. incubator for 3 min. When most of cells are shed, 150 μL of MCDB131 complete medium is added to terminate the digestion, shaken for 3 min, then cells are transferred to a V-shaped 96-well plate (Corning), centrifuged at 4° C., 3000 rpm for 3 min to precipitate cells. Then the supernatant medium is discarded, 100 μL of pH=7.4 buffer A (PBS+0.5% BSA+1 mM MgCl2) is added to each well, to wash once, centrifuged at 4° C., 3000 rpm for 3 min, and the buffer A is aspirated. To each well, 100 μL of PBS solution containing 5% bovine serum albumin is added, and shaken and blocked at 120 rpm for 30 min at room temperature; after blocking, centrifuged at 4° C. and 2000 rpm for 3 min, and the supernatant is discarded, 20 μl of buffer A containing 5 μg/mL of primary antibody anti-ICAM-1 antibody LB-2, shaken and incubated at room temperature at 120 rpm for 1 h, using the buffer A without adding anti-ICAM-1 antibody LB-2 as the negative control. By detecting anti-ICAM-1 fluorescence value by flow cytometry, the expression of ICAM-1 protein in HMEC-1 cells is detected indirectly. Three duplicate wells are established for each concentration. PBS is set as a blank control, 1 uM of Celastrol is set as a positive control, to analyze the inhibitory effect of different concentrations of drugs on the expression level of ICAM-1.\nas §1, with “U/ml” for “U/mL”, “μg/ml” for “μg/mL”, “Biotech)” for “Biotech (Shanghai) Co., Ltd.)”, “ng/ml” for “ng/mL”\nHMEC-1 cells are inoculated into a 24-well plate, and cultured in a cell incubator at 37° C., 5% CO2, and 100% RH. When the cells grow to 80% abundance, different concentrations of drugs are added for 3 h (1 μM Celastrol as a positive control drug). At the end of treatment, 1 μg/mL LPS is added to activate the NF-κB signaling pathway for 12 hours. After activation, the supernatant medium is discarded, and washed three times with PBS, and 100 μL of 0.25% pancreatin (containing 0.5 mM EDTA) is added to digest in a 37° C. incubator for 3 min. When most of cells are shed, 150 μL of MCDB131 complete medium is added to terminate the digestion, shaken for 3 min, then cells are transferred to a V-shaped 96-well plate (Corning), centrifuged at 4° C., 3000 rpm for 3 min to precipitate cells. Then the supernatant medium is discarded, 100 μL of pH=7.4 buffer A (PBS+0.5% BSA+1 mM MgCl2) is added to each well, to wash once, centrifuged at 4° C., 3000 rpm for 3 min, and the buffer A is aspirated. […]"}, "[2]": {"test_system": "Leptin-deficient ob/ob mice", "assay": "GA-02 in ob/ob mice, intraperitoneal", "assay_type": "in vivo", "conditions": "20 mg/kg i.p.", "procedure": "Eight-week-old male ob/ob and db/db mice are adapted to the environment under normal conditions for one week. The animals are grouped according to the body weight and blood glucose, 2 cages in each group, 5 animals in each cage. Mice are acclimatized with the vehicle for 3 days in the experimental group (25 μL DMSO/day) and are injected with drugs by intraperitoneal injection (20 mg/kg; 25 μL per injection). Mice in the control group are injected with the same volume of vehicle. The administration starts from 18:00 every day for 14 consecutive days. The body weight and food intake of mice are recorded every day."}, "lean mice (about 22 g)": {"test_system": "lean mice (about 22 g)", "conditions": "mouse, in vivo, ip", "method": "The animal feeding and experiment method are as follows. Six-week-old SPF-grade C57BL/6 mice (purchased from Hubei Provincial Center for Disease Control and Prevention) are fed in SPF animal house at a room temperature of 22° C., 4 mice per cage. Animals are fed with ordinary mouse feeds (purchased from) for 2 consecutive weeks. Mice are free to take food and the padding is changed every two days, and the body weights and blood glucose are monitored every week. When the body weight reaches 22 g, the administration is started. The drug is dissolved in DMSO solvent and administered by intraperitoneal injection at an injection volume of 25 μL per day. In addition, a vehicle and positive drug control are established. The food intake and body weight changes of mice in each group are measured every day."}}}
{"smiles": "CC1(C(=O)O)CCC2(C)CCC3(C)C(=CC(=O)C4C5(C)C=C(O)C(=O)C(C)(C)C5CCC43C)C2C1", "note": "(stereo not shown) [GA-02, 3,11-dicarbonyl-1,12-diene-2-hydroxy-oleanane-30 carboxylic acid]", "values": [{"measurement": "anti-inflammatory activity compared with reference compounds", "setting": "[1]", "value": "effectively improved compared with 18β-glycyrrhetinic acid"}, {"measurement": "anti-inflammatory activity, times lower than that of Celastrol", "setting": "[1]", "value": 10, "unit": "times"}, {"measurement": "ICAM-1 inhibitory activity compared with Celastrol", "setting": "[1]; 10 μM", "value": "equivalent to 1 μM Celastrol"}, {"measurement": "ICAM-1 inhibitory activity, concentration dependence", "setting": "[1]; different concentrations", "value": "concentration-dependent ICAM-1 inhibitory activity"}, {"measurement": "food intake compared with the blank vehicle group", "setting": "[2]; 14 days", "value": "reduced, but it is not significant"}, {"measurement": "overall decrease in body weight", "setting": "[2]; 14 days", "value": "not significant"}, {"measurement": "body weight increase", "setting": "[2]; in the first five days, later dropped to the initial body weight", "value": 10, "unit": "%"}, {"measurement": "body weights", "setting": "lean mice (about 22 g)", "value": "no decrease but an upward trend"}, {"measurement": "effect on the food intake and body weight (summary)", "setting": "lean mice (about 22 g)", "value": "no effect"}, {"measurement": "food intakes compared to the vehicle control group", "setting": "lean mice (about 22 g)", "value": "no significant change"}]}
